From US20170342026A1, “ISOPROPOXY-PHENYLGUANIDINE SERIES SALT AND APPLICATION THEREOF IN PREPARING GROWTH PROMOTERS FOR ANIMAL FEED” (GUANGZHOU INSIGHTER BIOTECHNOLOGY CO., LTD., priority 2015, published 2017)

Key:
Format in all cases: in vivo
broilers [1] = assay: Effects of the series of salts of isopropoxy-phenylguanidine on production performance of broilers; conditions: 50 ppm in feed, 30 days; for Average daily weight gain / Average feed conversion ratio / Survival rate (%): 1-day-old broilers; for effect on production performance compared with hydrochloride: broilers
Procedure: One thousand and five hundred (1500) 1-day-old broilers were divided into 15 groups and each group with 100 broilers. Different types of salts of isopropoxy-phenylguanidine were added to the same basic diets. The broilers were free feeding and drinking and continued feeding for 30 days, then to collect statistics of the production performance and the survival rate of broilers in each group.

[2] = test system: Duroc×Landrace×Large White piglets; assay: Effects of the salts of isopropoxy-phenylguanidine in a feed for pigs; conditions: 100 ppm in feed; for Average daily weight gain / Feed conversion ratio: piglets aged 28 days; for effect on production performance compared with hydrochloride: pigs, 28 days
Procedure: One hundred and twenty (120) Duroc×Landrace×Large White piglets aged 28 days with similar body weight were randomly divided into 6 groups, each with 20 pigs. Different types of salts of isopropoxy-phenylguanidine were added to the feeds respectively in accordance with Table 3. The pigs were free feeding and drinking during the test period of 28 days.

Cherry Valley ducks = assay: Effects of the salts of isopropoxy-phenylguanidine in a feed for ducks; conditions: 50 ppm in feed, 28 days; for Average daily weight gain / Feed conversion ratio: ducks aged 1 day; for effect on production performance compared with hydrochloride: ducks
Procedure: Six hundred (600) Cherry Valley ducks aged 1 day were randomly divided into 6 groups, each with 100 ducks. Different types of salts of isopropoxy-phenylguanidine were added to the feed according to Table 4. The ducks were free feeding and drinking during the test period of 28 days.

broilers [3] = assay: Effects of different concentrations of isopropoxy-phenylguanidine methanesulfonate on production performance of broilers
Procedure: Eight hundred (800) broilers aged 1 day were divided into 8 groups and each group with 100 broilers. Different concentrations of isopropoxy-phenylguanidine methanesulfonate were added to the same basic diets. The broilers were free feeding and drinking and continued feeding for 30 days, then to collect statistics of the production performance and the survival rate of broilers in each group.

[4] = broilers, 5 ppm in feed, 30 days
[5] = broilers, 10 ppm in feed, 30 days
[6] = broilers, 20 ppm in feed, 30 days
[7] = broilers, 50 ppm in feed, 30 days
[8] = broilers, 100 ppm in feed, 30 days
[9] = broilers, 200 ppm in feed, 30 days
[10] = broilers, 500 ppm in feed, 30 days

SMILES: CC(C)Oc1ccc(C=NNC(=N)NN=Cc2ccc(OC(C)C)cc2)cc1.O=S(=O)(O)CCO [2,2′-bis[[4-(isopropoxy)phenyl]methylene]-diaminoguanidine 2-hydroxyethylsulfonate]
- Average daily weight gain (broilers [1]): 49.1 g
- Average feed conversion ratio (broilers [1]): 1.987
- Survival rate (%) (broilers [1]): 100%
- effect on production performance compared with hydrochloride (broilers [1]): better than hydrochloride
- Average daily weight gain [2]: 537 g
- Feed conversion ratio [2]: 1.697
- effect on production performance compared with hydrochloride [2]: better than hydrochloride
- Average daily weight gain (Cherry Valley ducks): 67.9 g
- Feed conversion ratio (Cherry Valley ducks): 1.835
- effect on production performance compared with hydrochloride (Cherry Valley ducks): better than hydrochloride

SMILES: CC(C)Oc1ccc(C=NNC(=N)NN=Cc2ccc(OC(C)C)cc2)cc1.CS(=O)(=O)O [2,2′-bis[[4-(isopropoxy)phenyl]methylene]-diaminoguanidine methanesulfonate]
- Average daily weight gain (broilers [1]): 48.8 g
- Average feed conversion ratio (broilers [1]): 1.999
- Survival rate (%) (broilers [1]): 100%
- effect on production performance compared with hydrochloride (broilers [1]): better than hydrochloride
- Daily weight gain (broilers [3]; [4]): 42.3 g
- Feed conversion ratio (broilers [3]; [4]): 2.150
- Survival rate (%) (broilers [3]; [4]): 100%
- Daily weight gain (broilers [3]; [5]): 43.4 g
- Feed conversion ratio (broilers [3]; [5]): 2.138
- Survival rate (%) (broilers [3]; [5]): 100%
- Daily weight gain (broilers [3]; [6]): 44.5 g
- Feed conversion ratio (broilers [3]; [6]): 2.119
- Survival rate (%) (broilers [3]; [6]): 100%
- Daily weight gain (broilers [3]; [7]): 48.9 g
- Feed conversion ratio (broilers [3]; [7]): 2.087
- Survival rate (%) (broilers [3]; [7]): 100%
- Daily weight gain (broilers [3]; [8]): 49.6 g
- Feed conversion ratio (broilers [3]; [8]): 2.076
- Survival rate (%) (broilers [3]; [8]): 100%
- Daily weight gain (broilers [3]; [9]): 49.2 g
- Feed conversion ratio (broilers [3]; [9]): 2.071
- Survival rate (%) (broilers [3]; [9]): 100%
- Daily weight gain (broilers [3]; [10]): 49.5 g
- Feed conversion ratio (broilers [3]; [10]): 2.073
- Survival rate (%) (broilers [3]; [10]): 100%
- effect on production performance of broilers (broilers [3]; different concentrations (5-500 ppm) in feed, 30 days): significantly improve the production performance
- negative impacts on the production performance (broilers [3]; high concentrations in feed, broilers): no negative impacts
- Average daily weight gain [2]: 529 g
- Feed conversion ratio [2]: 1.713
- effect on production performance compared with hydrochloride [2]: better than hydrochloride
- Average daily weight gain (Cherry Valley ducks): 68.4 g
- Feed conversion ratio (Cherry Valley ducks): 1.831
- effect on production performance compared with hydrochloride (Cherry Valley ducks): better than hydrochloride

SMILES: CC(=O)O.CC(C)Oc1ccc(C=NNC(=N)NN=Cc2ccc(OC(C)C)cc2)cc1 [isopropoxy-phenylguanidine acetate, 2,2′-bis[[4-(isopropoxy)phenyl]methylene]-diaminoguanidine acetate]
- Average daily weight gain (broilers [1]): 43.2 g
- Average feed conversion ratio (broilers [1]): 2.129
- Survival rate (%) (broilers [1]): 99%

SMILES: CC(C)Oc1ccc(C=NNC(=N)NN=Cc2ccc(OC(C)C)cc2)cc1.O=C(O)c1ccccc1 [isopropoxy-phenylguanidine benzoate, 2,2′-bis[[4-(isopropoxy)phenyl]methylene]-diaminoguanidine benzoate]
- Average daily weight gain (broilers [1]): 44.7 g
- Average feed conversion ratio (broilers [1]): 2.126
- Survival rate (%) (broilers [1]): 100%

SMILES: CC(C)Oc1ccc(C=NNC(=N)NN=Cc2ccc(OC(C)C)cc2)cc1.O=C(O)CC(O)(CC(=O)O)C(=O)O [isopropoxy-phenylguanidine citrate, 2,2′-bis[[4-(isopropoxy)phenyl]methylene]-diaminoguanidine citrate]
- Average daily weight gain (broilers [1]): 44.5 g
- Average feed conversion ratio (broilers [1]): 2.125
- Survival rate (%) (broilers [1]): 100%
- Average daily weight gain [2]: 491 g
- Feed conversion ratio [2]: 1.803

SMILES: CC(C)Oc1ccc(C=NNC(=N)NN=Cc2ccc(OC(C)C)cc2)cc1.O=C(O)/C=C/C(=O)O [isopropoxy-phenylguanidine fumarate, 2,2′-bis[[4-(isopropoxy)phenyl]methylene]-diaminoguanidine fumarate]
- Average daily weight gain (broilers [1]): 44.1 g
- Average feed conversion ratio (broilers [1]): 2.136
- Survival rate (%) (broilers [1]): 99%

SMILES: CC(C)Oc1ccc(C=NNC(=N)NN=Cc2ccc(OC(C)C)cc2)cc1.Cl [isopropoxy-phenylguanidine hydrochloride, 2,2′-bis[[4-(isopropoxy)phenyl]methylene]-diaminoguanidine hydrochloride, reference compound]
- Average daily weight gain (broilers [1]): 46.6 g
- Average feed conversion ratio (broilers [1]): 2.087
- Survival rate (%) (broilers [1]): 100%
- Average daily weight gain [2]: 512 g
- Feed conversion ratio [2]: 1.754
- Average daily weight gain (Cherry Valley ducks): 65.3 g
- Feed conversion ratio (Cherry Valley ducks): 1.874

SMILES: CC(C)Oc1ccc(C=NNC(=N)NN=Cc2ccc(OC(C)C)cc2)cc1.CC(O)C(=O)O [isopropoxy-phenylguanidine lactate, 2,2′-bis[[4-(isopropoxy)phenyl]methylene]-diaminoguanidine DL-lactate]
- Average daily weight gain (broilers [1]): 47.9 g
- Average feed conversion ratio (broilers [1]): 2.006
- Survival rate (%) (broilers [1]): 100%
- effect on production performance compared with hydrochloride (broilers [1]): better than hydrochloride
- Average daily weight gain [2]: 535 g
- Feed conversion ratio [2]: 1.701
- effect on production performance compared with hydrochloride [2]: better than hydrochloride
- Average daily weight gain (Cherry Valley ducks): 67.8 g
- Feed conversion ratio (Cherry Valley ducks): 1.827
- effect on production performance compared with hydrochloride (Cherry Valley ducks): better than hydrochloride

SMILES: CC(C)Oc1ccc(C=NNC(=N)NN=Cc2ccc(OC(C)C)cc2)cc1.O=C(O)/C=C\C(=O)O [isopropoxy-phenylguanidine maleate, 2,2′-bis[[4-(isopropoxy)phenyl]methylene]-diaminoguanidine maleate]
- Average daily weight gain (broilers [1]): 44.1 g
- Average feed conversion ratio (broilers [1]): 2.137
- Survival rate (%) (broilers [1]): 100%

SMILES: CC(C)Oc1ccc(C=NNC(=N)NN=Cc2ccc(OC(C)C)cc2)cc1.O=C(O)C(=O)O [isopropoxy-phenylguanidine oxalate, 2,2′-bis[[4-(isopropoxy)phenyl]methylene]-diaminoguanidine oxalate]
- Average daily weight gain (broilers [1]): 43.1 g
- Average feed conversion ratio (broilers [1]): 2.145
- Survival rate (%) (broilers [1]): 100%

SMILES: CC(C)Oc1ccc(C=NNC(=N)NN=Cc2ccc(OC(C)C)cc2)cc1.O=P(O)(O)O [isopropoxy-phenylguanidine phosphate, 2,2′-bis[[4-(isopropoxy)phenyl]methylene]-diaminoguanidine phosphate]
- Average daily weight gain (broilers [1]): 44.0 g
- Average feed conversion ratio (broilers [1]): 2.139
- Survival rate (%) (broilers [1]): 100%
- Average daily weight gain (Cherry Valley ducks): 61.2 g
- Feed conversion ratio (Cherry Valley ducks): 1.926

SMILES: CC(C)Oc1ccc(C=NNC(=N)NN=Cc2ccc(OC(C)C)cc2)cc1.O=C(O)CCC(=O)O [isopropoxy-phenylguanidine succinate, 2,2′-bis[[4-(isopropoxy)phenyl]methylene]-diaminoguanidine succinate]
- Average daily weight gain (broilers [1]): 43.6 g
- Average feed conversion ratio (broilers [1]): 2.143
- Survival rate (%) (broilers [1]): 100%

SMILES: CC(C)Oc1ccc(C=NNC(=N)NN=Cc2ccc(OC(C)C)cc2)cc1.O=S(=O)(O)O [isopropoxy-phenylguanidine sulfate, 2,2′-bis[[4-(isopropoxy)phenyl]methylene]-diaminoguanidine sulfate]
- Average daily weight gain (broilers [1]): 43.7 g
- Average feed conversion ratio (broilers [1]): 2.131
- Survival rate (%) (broilers [1]): 100%

SMILES: CC(C)Oc1ccc(C=NNC(=N)NN=Cc2ccc(OC(C)C)cc2)cc1.O=C(O)C(O)C(O)C(=O)O [isopropoxy-phenylguanidine tartrate, 2,2′-bis[[4-(isopropoxy)phenyl]methylene]-diaminoguanidine tartrate]
- Average daily weight gain (broilers [1]): 43.9 g
- Average feed conversion ratio (broilers [1]): 2.131
- Survival rate (%) (broilers [1]): 98%
